Source: patent US10071963B2, “Polymorphic form of N-[2-(6-fluoro-1H-indol-3-yl)ethyl]-3-(2,2,3,3-tetrafluoropropoxy)benzylamine hydrochloride for the treatment of Alzheimer's disease” (H. Lundbeck A/S, priority 2014, dated 2018)

Legend:
Assay type in all cases: physicochemical
[1] = Slurry experiments of polymorphic form I in solvents, solid evaluated by XRPD; details: no solvate formed, hydrochloride
Method: 6 mL of a solvent or solvent mixture is added into a glass vial together with polymorphic form I of N-[2-(6-fluoro-1H-indol-3-yl)ethyl]-3-(2,2,3,3-tetrafluoropropoxy)benzylamine hydrochloride. The added amount of compound is determined by the expected solubility in the relevant solvent or solvent system. If a clear solution is obtained anti-solvent and/or additional polymorphic form I of N-[2-(6-fluoro-1H-indol-3-yl)ethyl]-3-(2,2,3,3-tetrafluoropropoxy)benzylamine hydrochlorideis added until it is a suspension at the relevant temperature. The suspension is slurred for a prolonged period of time. The result of the slurry experiment is evaluated by filtering off the solid material and measuring XRPD on the isolated solid.
(§1) 6 mL of a toluene/acetonitrile (4:1) solvent mixture was added into a glass vial and 100 mg polymorphic form I of N-[2-(6-fluoro-1H-indol-3-yl)ethyl]-3-(2,2,3,3-tetrafluoropropoxy)benzylamine hydrochloride was added. The resulting suspension was heated to 50° C. A clear solution was obtained and another 50 mg was added. The suspension was stirred for one month at 50° C. Polymorphic form III of N-[2-(6-fluoro-1H-indol-3-yl)ethyl]-3-(2,2,3,3-tetrafluoropropoxy)benzylamine hydrochloride was obtained as evaluated by XRPD.
as §1, with “an acetone/heptane (1:4)” for “a toluene/acetonitrile (4:1)”, “C.” for “C. A clear solution was obtained and another 50 mg was added.”, “week” for “month”
6 mL of a methanol/toluene (1:9) solvent mixture was added into a glass vial and 100 mg polymorphic form I of N-[2-(6-fluoro-1H-indol-3-yl)ethyl]-3-(2,2,3,3-tetrafluoropropoxy)benzylamine hydrochloride was added. After stirring another 1 mL of the anti-solvent (toluene) was added +50 mg polymorphic form I of N-[2-(6-fluoro-1H-indol-3-yl)ethyl]-3-(2,2,3,3-tetrafluoropropoxy)benzylamine hydrochloride. […] To the 4 mL solutions another 1 mL of toluene was added and additional 50 mg polymorphic form I of N-[2-(6-fluoro-1H-indol-3-yl)ethyl]-3-(2,2,3,3-tetrafluoropropoxy)benzylamine hydrochloride. The resulting suspension was heated to 50° C. A clear solution was obtained and substance was added until a suspension was obtained. The suspension was stirred for one week at 50° C. Polymorphic form III of N-[2-(6-fluoro-1H-indol-3-yl)ethyl]-3-(2,2,3,3-tetrafluoropropoxy)benzylamine hydrochloride was obtained as evaluated by XRPD.
6 mL of isopropyl acetate was added into a glass vial and 50 mg polymorphic form I of N-[2-(6-fluoro-1H-indol-3-yl)ethyl]-3-(2,2,3,3-tetrafluoropropoxy)benzylamine hydrochloride was added. The resulting suspension was heated to 50° C. A clear solution was obtained and another 50 mg polymorphic form I of N-[2-(6-fluoro-1H-indol-3-yl)ethyl]-3-(2,2,3,3-tetrafluoropropoxy)benzylamine hydrochloride was added. Substance was added until a suspension was obtained at 50° C. The suspension was stirred for one week at 50° C. Polymorphic form III of N-[2-(6-fluoro-1H-indol-3-yl)ethyl]-3-(2,2,3,3-tetrafluoropropoxy)benzylamine hydrochloride was obtained as evaluated by XRPD.
6 mL of ethyl acetate was added into a glass vial and 150 mg polymorphic form I of N-[2-(6-fluoro-1H-indol-3-yl)ethyl]-3-(2,2,3,3-tetrafluoropropoxy)benzylamine hydrochloride was added. The resulting suspension was heated to 50° C. on a thermal stirrer plate. A clear solution was obtained and 50 mg polymorphic form I of N-[2-(6-fluoro-1H-indol-3-yl)ethyl]-3-(2,2,3,3-tetrafluoropropoxy)benzylamine hydrochloride was added. Polymorphic form I of N-[2-(6-fluoro-1H-indol-3-yl)ethyl]-3-(2,2,3,3-tetrafluoropropoxy)benzylamine hydrochloride was added until a suspension was obtained. The suspension was stirred for one month at 50° C. […]

[2] = Thermodynamic solubility in organic solvents; details: room temperature (about 23° C.); for Solubility: HPLC at 217 nm, hydrochloride
Method: Thermodynamic solubility of polymorphic form I and III of N-[2-(6-fluoro-1H-indol-3-yl)ethyl]-3-(2,2,3,3-tetrafluoropropoxy)benzylamine hydrochloride was measured by shaking an excess amount of the two polymorphic forms in the organic solvent in a sealed container at room temperature (about 23° C.). After equilibrium was attained, a sample was withdrawn, the solid filtered or centrifuged off and the clear filtrate/supernatant was assayed by HPLC at 217 nm. The precipitate was evaluated by XRPD to determine the polymorphic form.

[3] = Relative stability of polymorphic form I, II and III (competitive slurry in saturated solution); details: II and III in equal amounts, hydrochloride
Method: A saturated solution was prepared by heating 1.6 mL isopropyl acetate and 0.4 mL heptane to 70° C. and adding 50 mg of polymorphic form I of N-[2-(6-fluoro-1H-indol-3-yl)ethyl]-3-(2,2,3,3-tetrafluoropropoxy)benzylamine hydrochloride.
The supernatant was divided into two ampoules and kept at 60° C. and 70° C.
5 mg of polymorphic form I, II and III of N-[2-(6-fluoro-1H-indol-3-yl)ethyl]-3-(2,2,3,3-tetrafluoropropoxy)benzylamine hydrochloride was added to the 60° C. solution and left stirring at 60° C. for one and four days, respectively.
2.5 mg of polymorphic form I, II and III of N-[2-(6-fluoro-1H-indol-3-yl)ethyl]-3-(2,2,3,3-tetrafluoropropoxy)benzylamine hydrochloride was added to the 70° C. solution and left without stirring at 70° C. for three days.

[4] = isopropyl acetate, 60° C., one and four days
[5] = 70° C., without stirring, three days

Structure (SMILES) | Transformation on slurrying / relative solubility and thermodynamic stability ([1]; slurried at 5° C.) | Transformation on slurrying / relative solubility and thermodynamic stability ([1]; slurried at 25° C.) | Transformation on slurrying / relative solubility and thermodynamic stability ([1]; slurried at 50° C.) | Solubility ([2]; 2-butanol) [mg base/mL] | Solubility ([2]; Isopropanol) [mg base/mL] | Solubility ([2]; Isopropyl acetate) [mg base/mL] | Relative thermodynamic stability of the polymorphic forms [3, 4] | Relative thermodynamic stability of the polymorphic forms [3, 5] | Relative solubility and thermodynamic stability ([2]; organic solvents, compared with polymorphic form I)
Cl.Fc1ccc2c(CCNCc3cccc(OCC(F)(F)C(F)F)c3)c[nH]c2c1 [polymorphic form I, N-[2-(6-fluoro-1H-indol-3-yl)ethyl]-3-(2,2,3,3-tetrafluoropropoxy)benzylamine hydrochloride] | transformed into polymorphic form III | transformed into polymorphic form III | transformed into polymorphic form III | 10.5 | 25.2 | 3.4 | less stable than polymorphic form III | – | –
Cl.Fc1ccc2c(CCNCc3cccc(OCC(F)(F)C(F)F)c3)c[nH]c2c1 [polymorphic form II, N-[2-(6-fluoro-1H-indol-3-yl)ethyl]-3-(2,2,3,3-tetrafluoropropoxy)benzylamine hydrochloride] | – | – | – | – | – | – | thermodynamically stable | thermodynamically stable | –
Cl.Fc1ccc2c(CCNCc3cccc(OCC(F)(F)C(F)F)c3)c[nH]c2c1 [polymorphic form III, N-[2-(6-fluoro-1H-indol-3-yl)ethyl]-3-(2,2,3,3-tetrafluoropropoxy)benzylamine hydrochloride] | less soluble and therefore thermodynamically stable | less soluble and therefore thermodynamically stable | less soluble and therefore thermodynamically stable | 9.3 | 24.5 | 3.0 | transforming into polymorphic form II | vanished | slightly less soluble and therefore thermodynamically stable
